System: Mitochondria-located protein genes
Assay: DNA chip mRNA expression in yeast, mitochondria-located protein genes (Table 2)
Type: cell-based, Saccharomyces cerevisiae S288C
Details: cells incubated two hours with the chemical substance
Procedure: Yeast (Saccharomyces cerevisiae S288C (α SUC2mal mel gap2 CUP1)) were incubated at 25° C. on YPD medium (yeast extract 1%, polypepton 2%, glucose 2%). One of toxic chemical substances was added to the cells at logarithmic growth phase, and the cells were further incubated for two hours. Cells were cultured without any chemical substance in the same condition, and were used as control. Concentrations of the chemical substances were defined to inhibit the growth of the yeast but not lead to death.
After completion of the incubation, the culture was centrifuged to collect the cells. To the cells, sodium acetate buffer (50 mM sodium acetate, 10 mM EDTA, 1% SDS) was added, and the mixture was shaken at 65° C. for five minutes, followed by returning to room temperature, and obtaining the supernatant, of which the procedures were repeated two times. To the supernatant, ½ amount of a solution of phenol/chloroform was added, and the mixture was centrifuged to give a supernatant, which was added with an equal amount of chloroform, and the mixture was centrifuged to give a supernatant. To the supernatant, an equal amount of isopropanol containing 0.3 M sodium acetate was added, and the mixture was allowed to stand at room temperature for 30 minutes, after which the mixture was centrifuged to give a sediment of the whole RNAs. Seventy % ethanol was added to the sediment, and the mixture was again centrifuged to give a sediment, which was then dried and dissolved in water. mRNA was isolated from the whole RNAs as followings. In view of the fact that a poly A chain is attached to the 3′ terminus of mRNA, a polynucleotide having a poly T structure which was immobilized on the surface of latex beads was used to trap the mRNA, and then the mRNA was washed and eluted with spine column (Oligotex-dT30<Super>mRNA Purification Kit, Takara). Reverse transcription of the mRNA was conducted with a reverse transcriptase (Super Script II Reverse Transcriptase; catalogue No. 18064-014, GibcoBRL) using fluorescence-labeled nucleotides to give cDNAs that were introduced with Cy3-dUTP or Cy5-dUTP during the reverse transcription.
The labeled cDNAs were dissolved in TE buffer (10mM Tris-HCl/1 mM EDTA, pH8.0), and the solution was dropped on the DNA chip containing the whole genes of yeast (DNA Chip Research Inc. Japan) so that the cDNAs were hybridized on the DNA chip at 65° C. for over 12 hours. The fluoresces intensity of the DNA chip was read with a scanner, and the ratio relative to the fluorescence intensity resulting from the absence of chemical substance was estimated as the following, which is shown in Tables 1 to 9: […]

Measured: The level of expressed mRNA in the presence of chemical substance/The level of expressed mRNA in the absence of chemical substance

[Cl][Cd][Cl] [(2), CdCl2]
3.5: yeast gene YGR028W
2.0: yeast gene YDR178W
1.7: yeast gene YMR035W | yeast gene YMR083W | yeast gene YOR130C | yeast gene YPL262W
1.4: yeast gene YBR044C | yeast gene YKR066C | yeast gene YNL073W | yeast gene YOR100C
2.5: yeast gene YOR316C
4.5: yeast gene YLR348C
2.3: yeast gene YDR258C | yeast gene YPR037C
1.0: yeast gene YBR091C | yeast gene YBR185C | yeast gene YBR282W | yeast gene YDL067C | yeast gene YDL198C | yeast gene YDR529C | yeast gene YFL016C | yeast gene YGL018C | yeast gene YGR062C | yeast gene YJL096W | yeast gene YJL133W | yeast gene YLR259C | yeast gene YOL096C | yeast gene YPL040C | yeast gene YPL134C | yeast gene YPR024W | yeast gene YPR047W
2.2: yeast gene YAL039C
0.8: yeast gene YBL022C | yeast gene YBR003W | yeast gene YDR347W | yeast gene YGL187C | yeast gene YKL148C | yeast gene YKL170W
5.4: yeast gene YHR008C
1.3: yeast gene YKL016C | yeast gene YLR395C | yeast gene YMR023C | yeast gene YNL104C
0.6: yeast gene YLR304C
2.8: yeast gene YCR083W
0.9: yeast gene YBL030C | yeast gene YBL038W | yeast gene YBL099W | yeast gene YBR122C | yeast gene YBR251W | yeast gene YEL024W | yeast gene YER178W | yeast gene YGR082W | yeast gene YML129C | yeast gene YNL071W
1.2: yeast gene YCR046C | yeast gene YDR298C | yeast gene YGR244C | yeast gene YML120C | yeast gene YOR142W | yeast gene YOR150W | yeast gene YPL135W
1.1: yeast gene YDR079W | yeast gene YDR377W | yeast gene YJR077C | yeast gene YJR121W | yeast gene YKL141W | yeast gene YLR038C | yeast gene YLR295C | yeast gene YMR089C | yeast gene YMR152W | yeast gene YPR134W
1.5: yeast gene YCL057W | yeast gene YJL166W | yeast gene YOR037W
2.7: yeast gene YKL142W
1.6: yeast gene YDR231C | yeast gene YGL191W | yeast gene YGR076C | yeast gene YGR174C | yeast gene YJL180C | yeast gene YNL256W
2.1: yeast gene YOR020C
0.5: yeast gene YLL041C | yeast gene YOR187W
1.9: yeast gene YJR045C | yeast gene YPL215W
2.6: yeast gene YOR176W
3.0: yeast gene YGR008C
0.7: yeast gene YBR221C | yeast gene YEL039C | yeast gene YIL155C | yeast gene YJL102W | yeast gene YKL003C | yeast gene YKL194C | yeast gene YMR203W
1.8: yeast gene YDL181W | yeast gene YML054C | yeast gene YMR267W | yeast gene YNL055C

— patent publication US8192962B2, “Processes for detecting toxic substances” (Daikin Industries, Ltd., priority 2001, dated 2012)
